“Also recorded” adds a separate entry of the source.
Key:
[1] = test system: New Zealand white rabbits; test: Survival studies in rabbits after lethal doses of radiation; assay type: in vivo; conditions: 120 mg/kg at 24 hours and 15 minutes before lethal doses of radiation
Experimental: (§1) Unlike in the mouse studies, clear evidence of improved repopulation of various hematologic cell lineages was not evident in these preliminary studies. Both solution and suspension formulations were tested.

[2] = test system: HFL-1 (normal diploid lung fibroblasts) cells; test: Clonogenic assay, radioprotection of HFL-1 cells against ionizing radiation; assay type: cell-based, human
Excerpt: FIG. 1. Protection of HFL-1 cells against Ionizing Radiation (IR) by ON 01210.Na. Following drug treatment and radiation exposure, cells were re-plated and the number of colonies from each plate was enumerated three weeks later. A. Relation of concentration of ON 01210.Na to number of surviving colonies. B. Stained clonogenic assay plates.
A clonogenic assay was used to measure radioprotection of ON 01210.Na on cultured human cells. Treatment of HFL-1 (normal diploid lung fibroblasts) cells with 2-20 μM of ON 01210.Na for 24 hours prior to cytotoxic levels of Ionizing Radiation (IR) (10 Gy) provided 3.3-4.7 fold protection in a dose-dependent manner (see FIG. 1A).HFL-1 cells, were treated with ON 01210.Na at final concentrations ranging from 2.0 to 20.0 μM. In a second experiment, cells were also treated with the drug for 24 h, but the drug was applied 4 h after irradiation.
Following drug treatment and radiation exposure, cells were re-plated and the number of colonies from each plate was enumerated three weeks later. A. Relation of concentration of ON 01210.Na to number of surviving colonies. B. Stained clonogenic assay plates.

[3] = test system: human bone marrow cells; test: Cytotoxicity to human bone marrow cells (methocult, total colony forming units); assay type: cell-based; conditions: 2 and 24 hours treatment, up to 20 μM; sodium salt
Experimental: FIG. 2. ON 01210.Na is not cytotoxic to human bone marrow cells in vitro. Human bone marrow cells were treated with various concentrations of ON 01210.Na for (A) 2 hrs or (B) 24 hrs. The cells were then plated into methocult medium. Total colony forming units were determined 14 days later.
The ability of ON 01210.Na to protect primary human bone marrow cells from cytotoxic doses of radiation was studied in an in vitro assay. Initially, cytotoxicity studies were performed. Human bone marrow cells isolated from healthy volunteers were treated with increasing concentrations of ON 01210.Na for 2 and 24 hours and plated into methocult.
FIG. 2. ON 01210.Na was not cytotoxic to human bone marrow cells in vitro. Human bone marrow cells were treated with various concentrations of ON 01210.Na for (A) 2 hrs or (B) 24 hrs. The cells were then plated into methocult medium. Total colony forming units were determined 14 days later.

[4] = test system: white blood cells, platelets, hematocrit and hemoglobin levels; test: Hematology in irradiated rabbits; assay type: in vivo, New Zealand white rabbits
Experimental: as §1

[5] = test system: DNA damage; test: Comet assay, DNA damage caused by irradiation of cells; assay type: cell-based
[6] = test system: white blood cells; test: White blood cell counts of irradiated mice; assay type: in vivo, C3H/HEJ mice
Experimental: FIG. 4. ON 01210.Na protects the bone marrow of irradiated mice. A. Mice were injected with 500 mg/kg of ON 01210.Na formulated in 1% Polysorbate 80/K-phosphate buffer or vehicle alone by sc injections minus 24 hrs and minus 15 minutes before 5.5 Gy of whole body ionizing radiation treatment. Whole blood was collected on the indicted days and WBC counts were performed following RBC lysis. The data is plotted as the average of three mice per group +/−SEM (N:3×3=9 plates). B. Pictures of representative plates. […] C. White blood cell counts. Whole blood was collected on the indicted days and WBC counts were performed following RBC lysis. The data is plotted as the average of 3 mice per group±SEM (N=3).
A. Mice were injected with 500 mg/kg of ON 01210.Na formulated in 1% Polysorbate 80/K-phosphate buffer or vehicle alone by sc injections minus 24 hrs and minus 15 minutes before 5.5 Gy of whole body ionizing radiation treatment. Whole blood was collected on the indicted days and WBC counts were performed following RBC lysis. The data is plotted as the average of three mice per group+/−SEM (N:3×3=9 plates). […]
In addition to examining the ability of ON 01210.Na to protect bone marrow cells, the protection of peripheral white blood cells was also examined. Whole blood was collected and the total number of white blood cells was determined at various times after radiation exposure.

[7] = test system: apoptosis-specific signaling events; test: Signaling studies, apoptosis-specific signaling after radiation; assay type: cell-based; conditions: treatment prior to radiation exposure
Excerpt: To analyze and investigate the efficacy of a cytotoxic protective drug, biological assays were developed that assisted in determination of the mechanism of action of these drugs at the intracellular level. In the case of ON 01210.Na, certain components of cellular and DNA damage-sensing, repair, and apoptosis pathways were studied in more detail.

[8] = test system: human bone marrow cells; test: In vitro radiation protection of human bone marrow cells (methocult CFU); assay type: cell-based
Experimental: FIG. 3. In vitro radiation protection of human bone marrow cells. Human bone marrow cells were treated with increasing concentrations of ON 01210.Na for 3 hours, and then irradiated with increasing doses of ionizing radiation. The cells were plated into methocult and the total number of CFUs was determined 14 days later.
Radiation protection assays were then performed (FIG. 3). Cells were treated with ON 01210.Na for 3 hours, irradiated, and plated in methocult. The total number of colony forming units was determined 14 days later. […] This compared very favorably when analyzed against protection studies using amifostine as a positive control.
Human bone marrow cells were treated with increasing concentrations of ON 01210.Na for 3 hours, and then irradiated with increasing doses of ionizing radiation. The cells were plated into methocult and the total number of CFUs was determined 14 days later.
When we plotted the survival curve at the optimal concentration of ON 01210.Na (FIG. 3C) we were able to calculate a dose reduction factor (DRF) of 1.6. We also tested the radiation protection activity of amifostine. Amifostine concentrations were selected that closely mimicked the therapeutic plasma concentrations. […] The calculated DRF value of 1.5 was determined from these experiments.

[9] = test system: human umbilical vein endothelial cells; test: In vitro clonogenic survival assay, endothelial cells; assay type: cell-based

## O=C([O-])c1ccc(/C=C/S(=O)(=O)Cc2ccc(Cl)cc2)cc1.[Na+] [ON 01210.Na, E-4-Carboxystyryl-4-chlorobenzylsulfone sodium salt]
[1]
  survival relative to vehicle-treated animals: survival benefit
[2]; 2-20 μM for 24 hours prior to 10 Gy IR, dose-dependent
  fold protection (surviving colonies): 3.3-4.7 fold
[2]; ON 01210.Na treated group after IR
  number of cells per colony: significant larger
[2]; human lung fibroblasts
  protection from radiation exposure (clonogenic survival): protected
[2]; treated four hours post irradiation exposure, 24 h
  protection when cells treated post irradiation: significant protection
[3]
  cytotoxicity to human bone marrow cells (total colony forming units): non cytotoxic; also recorded: not cytotoxic; also recorded: nontoxic
[4]; 120 mg/kg at 24 hours and 15 minutes before lethal radiation
  white blood cells, platelets, hematocrit and hemoglobin levels: general protective trend
[4]; preliminary studies
  improved repopulation of hematologic cell lineages: not evident
[5]
  DNA damage caused by irradiation (Comet assays): reduced the amount of DNA damage
[6]; 500 mg/kg sc -24 h and -15 min before 5.5 Gy IR, sodium salt
  protection of white blood cells from radiation exposure: significantly protected
[6]; by 18 days
  recovery of white cell numbers: more rapid recovery
[7]
  level of apoptosis-specific signaling events: reduced the level of apoptosis-specific signaling events
[8]
  range of concentrations that protected cells: 10 fold
[8]; 3 hours treatment
  optimal concentration for radiation protection: 10 µM
[8]; 3 hours treatment before irradiation, sodium salt
  radiation protection of human bone marrow cells: protect human bone marrow cells in a dose dependent manner; also recorded: protected human bone marrow cells in a dose responsive manner; also recorded: very effective; also recorded: reproducibly protect
[8]; ON 01210.Na 10 μM (optimal), 3 hours before irradiation
  dose reduction factor (DRF): 1.6
[9]
  protection from radiation exposure (clonogenic survival): protected

— patent publication US20110250184A1, “METHODS FOR DETERMINING EFFICACY OF A THERAPEUTIC REGIMEN AGAINST DELETERIOUS EFFECTS OF CYTOTOXIC AGENTS IN HUMAN” (priority 2008, published 2011)
